In brackets after ≈: the same amount, converted by molar mass.
Legend:
Format in all cases: functional
[1] = test system: Salmonella typhi; assay: Antibacterial activity against Salmonella enterica subsp. enterica serovar Typhi MTCC 733 assessed as growth inhibition at 3.12 to 50 ug/mL after 24 hr by agar disk diffusion method
[2] = test system: Klebsiella pneumoniae; assay: Antibacterial activity against Klebsiella pneumoniae MTCC 109 assessed as growth inhibition at 3.12 to 50 ug/mL after 24 hr by agar disk diffusion method
[3] = test system: Klebsiella pneumoniae; assay: Antibacterial activity against Klebsiella pneumoniae MTCC 109 assessed as growth inhibition after 24 hr by agar streak dilution method; conditions: MTCC 109, 24 h
[4] = test system: Salmonella typhi; assay: Antibacterial activity against Salmonella enterica subsp. enterica serovar Typhi MTCC 733 assessed as growth inhibition after 24 hr by agar streak dilution method; conditions: MTCC 733, 24 h
[5] = test system: Pseudomonas aeruginosa; assay: Antibacterial activity against Pseudomonas aeruginosa MTCC 741 assessed as growth inhibition after 24 hr by agar streak dilution method; conditions: MTCC 741, 24 h
[6] = test system: Escherichia coli; assay: Antibacterial activity against Escherichia coli MTCC 739 assessed as growth inhibition after 24 hr by agar streak dilution method; conditions: MTCC 739, 24 h
[7] = test system: Bacillus cereus; assay: Antibacterial activity against Bacillus cereus MTCC 430 assessed as growth inhibition after 24 hr by agar streak dilution method; conditions: MTCC 430, 24 h
[8] = test system: Staphylococcus aureus; assay: Antibacterial activity against Staphylococcus aureus MTCC 96 assessed as growth inhibition after 24 hr by agar streak dilution method; conditions: MTCC 96, 24 h
[9] = test system: Mycobacterium tuberculosis; assay: Antimycobacterial activity against Mycobacterium tuberculosis H37Rv assessed as growth inhibition at MIC after 12 to 28 days by Lowenstein and Jensen agar dilution method
[10] = test system: Mycobacterium tuberculosis; assay: Antimycobacterial activity against Mycobacterium tuberculosis H37Rv assessed as growth inhibition after 12 to 28 days by Lowenstein and Jensen agar dilution method
[11] = test system: Mycobacterium tuberculosis; assay: Antimycobacterial activity against Mycobacterium tuberculosis H37Rv assessed as growth inhibition measured within 10 days by BACTEC MGIT method; conditions: 240 h
[12] = test system: Candida albicans; assay: Antifungal activity against Candida albicans MTCC 183 assessed as growth inhibition at 3.12 to 50 ug/mL after 24 hr by agar disk diffusion method
[13] = test system: Aspergillus clavatus; assay: Antifungal activity against Aspergillus clavatus MTCC 1323 assessed as growth inhibition at 3.12 to 50 ug/mL after 24 hr by agar disk diffusion method
[14] = test system: Aspergillus fumigatus; assay: Antifungal activity against Aspergillus fumigatus MTCC 343 assessed as growth inhibition at 3.12 to 50 ug/mL after 24 hr by agar disk diffusion method
[15] = test system: Aspergillus niger; assay: Antifungal activity against Aspergillus niger MTCC 282 assessed as growth inhibition at 3.12 to 50 ug/mL after 24 hr by agar disk diffusion method
[16] = test system: Candida albicans; assay: Antifungal activity against Candida albicans MTCC 183 assessed as growth inhibition after 48 hr by agar streak dilution method; conditions: MTCC 183, 48 h
[17] = test system: Aspergillus clavatus; assay: Antifungal activity against Aspergillus clavatus MTCC 1323 assessed as growth inhibition after 48 hr by agar streak dilution method; conditions: MTCC 1323, 48 h
[18] = test system: Aspergillus fumigatus; assay: Antifungal activity against Aspergillus fumigatus MTCC 343 assessed as growth inhibition after 48 hr by agar streak dilution method; conditions: MTCC 343, 48 h
[19] = test system: Aspergillus niger; assay: Antifungal activity against Aspergillus niger MTCC 282 assessed as growth inhibition after 48 hr by agar streak dilution method; conditions: MTCC 282, 48 h
[20] = test system: Shigella flexneri; assay: Antibacterial activity against Shigella flexneri MTCC 1457 assessed as growth inhibition at 3.12 to 50 ug/mL after 24 hr by agar disk diffusion method
[21] = test system: Proteus vulgaris; assay: Antibacterial activity against Proteus vulgaris MTCC 1771 assessed as growth inhibition at 3.12 to 50 ug/mL after 24 hr by agar disk diffusion method
[22] = test system: Pseudomonas aeruginosa; assay: Antibacterial activity against Pseudomonas aeruginosa MTCC 741 assessed as growth inhibition at 3.12 to 50 ug/mL after 24 hr by agar disk diffusion method
[23] = test system: Escherichia coli; assay: Antibacterial activity against Escherichia coli MTCC 739 assessed as growth inhibition at 3.12 to 50 ug/mL after 24 hr by agar disk diffusion method
[24] = test system: Bacillus cereus; assay: Antibacterial activity against Bacillus cereus MTCC 430 assessed as growth inhibition at 3.12 to 50 ug/mL after 24 hr by agar disk diffusion method
[25] = test system: Staphylococcus aureus; assay: Antibacterial activity against Staphylococcus aureus MTCC 96 assessed as growth inhibition at 3.12 to 50 ug/mL after 24 hr by agar disk diffusion method
[26] = test system: Shigella flexneri; assay: Antibacterial activity against Shigella flexneri MTCC 1457 assessed as growth inhibition after 24 hr by agar streak dilution method; conditions: MTCC 1457, 24 h
[27] = test system: Proteus vulgaris; assay: Antibacterial activity against Proteus vulgaris MTCC 1771 assessed as growth inhibition after 24 hr by agar streak dilution method; conditions: MTCC 1771, 24 h

Compound	inhibition zone (IZ) [1] [mm]	inhibition zone (IZ) [2] [mm]	MIC [3] [µg/mL]	MIC [4] [µg/mL]	MIC [5] [µg/mL]	MIC [6] [µg/mL]	MIC [7] [µg/mL]	MIC [8] [µg/mL]	growth inhibition (GI) [9] [%]	MIC [10] [µg/mL]	MIC [11] [µg/mL]	inhibition zone (IZ) [12] [mm]	inhibition zone (IZ) [13] [mm]	inhibition zone (IZ) [14] [mm]	inhibition zone (IZ) [15] [mm]	MIC [16] [µg/mL]	MIC [17] [µg/mL]	MIC [18] [µg/mL]	MIC [19] [µg/mL]	inhibition zone (IZ) [20] [mm]	also measured
CC(=O)Nc1ccc2nc(NC(=O)CNc3ccc(-c4nc(N5CC(C)CC(C)C5)nc(N5CC(C)CC(C)C5)n4)cc3)sc2c1 (stereo not drawn)	17	21	50 (≈ 77.9 µM)	50 (≈ 77.9 µM)	50 (≈ 77.9 µM)	50 (≈ 77.9 µM)	50 (≈ 77.9 µM)	50 (≈ 77.9 µM)	98	50 (≈ 77.9 µM)	> 6.25	22	24	<10	24	25 (≈ 39 µM)	50 (≈ 77.9 µM)	> 50	6.25 (≈ 9.74 µM)	13	inhibition zone (IZ) [21]: 26 mm; inhibition zone (IZ) [22]: 19 mm; inhibition zone (IZ) [23]: 19 mm; inhibition zone (IZ) [24]: 17 mm; inhibition zone (IZ) [25]: 19 mm; MIC [26]: 50 µg/mL (≈ 77.9 µM); MIC [27]: 6.25 µg/mL (≈ 9.74 µM)
CC1CC(C)CN(c2nc(-c3ccc(NCC(=O)Nc4nc5ccc(Cl)cc5s4)cc3)nc(N3CC(C)CC(C)C3)n2)C1 (stereo not drawn)	22	23	50 (≈ 80.7 µM)	25 (≈ 40.4 µM)	25 (≈ 40.4 µM)	25 (≈ 40.4 µM)	6.25 (≈ 10.1 µM)	6.25 (≈ 10.1 µM)	97	62.5 (≈ 101 µM)	> 6.25	12	<10	<10	17	50 (≈ 80.7 µM)	> 50	> 50	50 (≈ 80.7 µM)	26	inhibition zone (IZ) [21]: 20 mm; inhibition zone (IZ) [22]: 26 mm; inhibition zone (IZ) [23]: 21 mm; inhibition zone (IZ) [24]: 27 mm; inhibition zone (IZ) [25]: 22 mm; MIC [26]: 6.25 µg/mL (≈ 10.1 µM); MIC [27]: 50 µg/mL (≈ 80.7 µM)
CC1CC(C)CN(c2nc(-c3ccc(NCC(=O)Nc4nc5ccc(Br)cc5s4)cc3)nc(N3CC(C)CC(C)C3)n2)C1 (stereo not drawn)	24	11	50 (≈ 75.3 µM)	6.25 (≈ 9.42 µM)	25 (≈ 37.7 µM)	12.5 (≈ 18.8 µM)	6.25 (≈ 9.42 µM)	1.56 (≈ 2.35 µM)	99	12.5 (≈ 18.8 µM)	> 6.25	18	26	19	19	50 (≈ 75.3 µM)	50 (≈ 75.3 µM)	50 (≈ 75.3 µM)	50 (≈ 75.3 µM)	25	inhibition zone (IZ) [21]: 23 mm; inhibition zone (IZ) [22]: 25 mm; inhibition zone (IZ) [23]: 23 mm; inhibition zone (IZ) [24]: 26 mm; inhibition zone (IZ) [25]: 25 mm; MIC [26]: 12.5 µg/mL (≈ 18.8 µM); MIC [27]: 25 µg/mL (≈ 37.7 µM)
CC1CC(C)CN(c2nc(-c3ccc(NCC(=O)Nc4nc5ccc(I)cc5s4)cc3)nc(N3CC(C)CC(C)C3)n2)C1 (stereo not drawn)	17	12	50 (≈ 70.4 µM)	50 (≈ 70.4 µM)	50 (≈ 70.4 µM)	50 (≈ 70.4 µM)	25 (≈ 35.2 µM)	12.5 (≈ 17.6 µM)	96	200 (≈ 281 µM)	> 6.25	20	11	<10	<10	50 (≈ 70.4 µM)	50 (≈ 70.4 µM)	> 50	50 (≈ 70.4 µM)	23	inhibition zone (IZ) [21]: 26 mm; inhibition zone (IZ) [22]: 16 mm; inhibition zone (IZ) [23]: 18 mm; inhibition zone (IZ) [24]: 24 mm; inhibition zone (IZ) [25]: 21 mm; MIC [26]: 25 µg/mL (≈ 35.2 µM); MIC [27]: 12.5 µg/mL (≈ 17.6 µM)

Source: ChEMBL document CHEMBL3046161, “Synthesis of potential antitubercular and antimicrobial s-triazine-based scaffolds via Suzuki cross-coupling reaction” (2013)
